# From ChEMBL document CHEMBL2375263, “Identification and design of a novel series of MGAT2 inhibitors” (Bioorg Med Chem Lett, 2013)
# Columns and labels:
# Mus musculus [1] = test: Antiobesity activity in C57Bl6J mouse assessed as inhibition of corn oil-induced triacylglycerol excursion at 5 mg/kg, po administered at 30 mins post corn-oil challenge measured after 2 hrs by oral lipid tolerance test relative to control; assay type: functional
# Mus musculus [2] = test: Antiobesity activity in C57Bl6J mouse assessed as inhibition of corn oil-induced triacylglycerol excursion at 150 mg/kg, po administered at 30 mins post corn-oil challenge measured after 2 hrs by oral lipid tolerance test relative to control; assay type: functional
# [3] = Tmax in mouse at 100 mg/kg, po; assay type: ADME, organism-based; parameters: dose 100 mg/kg, route oral; details: in vivo
# [4] = target: T1, Acyl-CoA wax alcohol acyltransferase 2 (Homo sapiens, UniProt Q6E213); test: Inhibition of human recombinant AWAT2 expressed in insect cell membrane using cetyl alcohol and [14C]oleoyl coenzyme A as substrate after 10 to 15 mins by liquid scintillation counting
# T1 sequence (Q6E213 whole entry): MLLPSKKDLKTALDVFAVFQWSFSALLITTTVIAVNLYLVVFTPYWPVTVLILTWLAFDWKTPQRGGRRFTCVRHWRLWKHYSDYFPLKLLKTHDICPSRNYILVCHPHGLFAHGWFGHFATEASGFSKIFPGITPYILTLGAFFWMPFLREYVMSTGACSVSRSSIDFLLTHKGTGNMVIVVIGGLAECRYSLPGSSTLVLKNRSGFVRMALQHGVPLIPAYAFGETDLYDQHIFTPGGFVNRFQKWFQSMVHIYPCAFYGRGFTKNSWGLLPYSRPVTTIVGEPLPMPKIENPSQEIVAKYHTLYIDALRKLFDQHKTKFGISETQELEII
# [5] = target: T2, Acyl-CoA wax alcohol acyltransferase 1 (Homo sapiens, UniProt Q58HT5); test: Inhibition of human recombinant AWAT1 expressed in insect cell membrane using palmitoleyl alcohol and [14C]stearoyl coenzyme A as substrate after 10 to 15 mins by liquid scintillation counting
# T2 sequence (Q58HT5 whole entry): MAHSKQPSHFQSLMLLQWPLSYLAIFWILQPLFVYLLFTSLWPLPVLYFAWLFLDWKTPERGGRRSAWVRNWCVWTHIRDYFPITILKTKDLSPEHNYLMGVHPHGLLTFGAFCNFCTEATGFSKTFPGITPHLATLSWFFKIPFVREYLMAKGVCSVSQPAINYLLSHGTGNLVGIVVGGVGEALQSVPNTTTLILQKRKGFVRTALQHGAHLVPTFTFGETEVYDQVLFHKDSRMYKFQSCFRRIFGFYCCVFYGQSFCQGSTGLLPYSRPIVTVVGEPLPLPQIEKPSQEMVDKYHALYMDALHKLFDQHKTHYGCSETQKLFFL
# [6] = target: T3, Diacylglycerol O-acyltransferase 2 (Homo sapiens, UniProt Q96PD7); test: Inhibition of human recombinant DGAT2 using dioleoyl-sn-glycerol and [14C]oleoyl coenzyme A as substrate after 30 mins by liquid scintillation counting
# T3 sequence (Q96PD7 whole entry): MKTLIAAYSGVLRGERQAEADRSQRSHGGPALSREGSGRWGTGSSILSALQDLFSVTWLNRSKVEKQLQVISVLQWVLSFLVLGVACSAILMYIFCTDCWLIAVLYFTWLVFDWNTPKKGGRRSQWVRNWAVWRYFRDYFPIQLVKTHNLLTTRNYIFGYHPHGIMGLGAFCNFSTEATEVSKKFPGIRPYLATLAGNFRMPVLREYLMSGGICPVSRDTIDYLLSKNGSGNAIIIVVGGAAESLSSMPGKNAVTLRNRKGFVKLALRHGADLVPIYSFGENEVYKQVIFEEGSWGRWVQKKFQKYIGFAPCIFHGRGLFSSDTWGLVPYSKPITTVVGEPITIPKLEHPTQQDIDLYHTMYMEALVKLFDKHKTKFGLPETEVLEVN
# [7] = target: T4, Diacylglycerol O-acyltransferase 1 (Homo sapiens, UniProt O75907); test: Inhibition of human recombinant DGAT1 expressed in Sf9 cells using dioleoyl-sn-glycerol and [14C]oleoyl coenzyme A as substrate after 30 mins by liquid scintillation counting
# T4 sequence (O75907 whole entry): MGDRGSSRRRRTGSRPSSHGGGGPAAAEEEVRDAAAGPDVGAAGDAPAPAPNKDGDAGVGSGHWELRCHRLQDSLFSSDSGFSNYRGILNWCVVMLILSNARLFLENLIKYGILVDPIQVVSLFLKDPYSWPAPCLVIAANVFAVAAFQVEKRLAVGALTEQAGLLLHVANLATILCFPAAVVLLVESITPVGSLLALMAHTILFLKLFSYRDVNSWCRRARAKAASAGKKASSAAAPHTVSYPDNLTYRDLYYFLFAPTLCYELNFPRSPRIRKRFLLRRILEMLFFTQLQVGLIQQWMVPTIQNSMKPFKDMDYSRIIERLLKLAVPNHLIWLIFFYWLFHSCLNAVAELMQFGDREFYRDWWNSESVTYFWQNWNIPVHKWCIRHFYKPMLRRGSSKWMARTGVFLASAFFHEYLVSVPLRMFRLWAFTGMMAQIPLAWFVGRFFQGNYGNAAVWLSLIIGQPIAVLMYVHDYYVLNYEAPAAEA
# [8] = Time dependent inhibition of CYP450 (unknown origin); assay type: ADME; details: human
# [9] = Inhibition of CYP450 (unknown origin); assay type: ADME; details: human
# [10] = Apparent permeability from apical side to basolateral side of human Caco2 cells at 10 umol/l measured up to 120 mins by LCMS analysis; assay type: ADME, cell-based; details: Caco-2
# [11] = Dissociation constant, pKa of the compound; assay type: physicochemical
# [12] = Intrinsic clearance in human liver microsomes as 1 umol/l measured up to 30 mins by LC-MS analysis; assay type: ADME, Microsome; details: read-out: CLH
# [13] = Lipophilicity, log D of the compound at pH 7.4; assay type: physicochemical; details: buffer
# Liver microsomes = test: Ratio of compound-glutathione adduct formation to clozapine-glutathione adduct formation in human liver microsomes at 10 umol/l after 30 mins by glutathione trapping method; assay type: ADME, Microsome; details: 0.5 h, 10 µM
# [14] = Solubility of the compound; assay type: physicochemical
SMILES,inhibition in vivo at 5 mg/kg (Mus musculus [1]) [%],inhibition in vivo at 150 mg/kg (Mus musculus [2]) [%],Tmax [3] [min],IC50 [4] [µM],IC50 [5] [µM],IC50 [6] [µM],IC50 [7] [µM],inhibition (INH) [8],inhibition (INH) [9],"Papp A→B at 2 h, 10 µM [10] [×10⁻⁶ cm/s]",pKa [11],microsomal CLint at 1 µM [12] [µL/min/mg],logD [13],Ratio (Liver microsomes),solubility [14] [µM]
CC[C@]1(C)NC(=O)c2cc(S(=O)(=O)Nc3ccc(F)cc3F)ccc2NC1=O,116,68,30,> 100,> 100,> 10,> 10,Not Active,Not Active,3.3,7.3,< 5,–,–,–
CC1(C)NC(=O)c2cc(S(=O)(=O)Nc3ccccc3)ccc2NC1=O,–,–,–,–,–,–,–,–,–,–,–,–,1.6,–,–
O=C1NC2(CCCC2)C(=O)Nc2ccc(S(=O)(=O)Nc3ccc(Cl)cc3)cc21,–,–,–,–,–,–,–,–,–,–,–,–,3,–,–
CCC1(CC)NC(=O)c2cc(S(=O)(=O)Nc3ccc(F)cc3F)ccc2NC1=O,–,–,–,–,–,–,–,–,–,–,–,–,2.2,–,–
CCC1(CC)CNc2ccc(S(=O)(=O)Nc3ccc(F)cc3F)cc2C(=O)N1,–,–,–,> 100,> 100,> 10,> 10,Not Active,Not Active,16,8,40,–,1.8,–
CC[C@]1(C)NC(=O)c2cc(S(=O)(=O)Nc3ccc(C(F)(F)F)cc3)ccc2NC1=O,–,–,–,> 100,> 100,> 10,> 10,Not Active,Not Active,3.1,6.9,< 5,–,–,–
CC[C@]1(C)NC(=O)c2cc(S(=O)(=O)Nc3ccc(OC(F)F)cc3)ccc2NC1=O,–,–,–,> 100,> 100,> 10,> 10,Not Active,Not Active,1.1,7.9,2.8,–,–,–
CCC1(C)NC(=O)c2cc(S(=O)(=O)Nc3ccc(OC(F)F)cc3)ccc2NC1=O (racemic),–,–,–,–,–,–,–,–,–,–,–,–,2.3,–,–
CCC1(C)NC(=O)c2cc(S(=O)(=O)Nc3ccc(F)cc3F)ccc2NC1=O (racemic),–,–,–,–,–,–,–,–,–,–,–,–,1.8,–,–
CCC1NC(=O)c2cc(S(=O)(=O)Nc3ccccc3)ccc2NC1=O (racemic),–,–,–,–,–,–,–,–,–,–,–,–,1.6,–,–
CCCC1(C)NC(=O)c2cc(S(=O)(=O)Nc3ccc(F)cc3F)ccc2NC1=O (racemic),–,–,–,–,–,–,–,–,–,–,–,–,2.2,–,–
CCC1(C)NC(=O)c2cc(S(=O)(=O)N(C)c3ccccc3)ccc2NC1=O (racemic),–,–,–,> 100,> 100,> 10,> 10,Not Active,Not Active,36,–,221,–,0,–
CCC1(C)NC(=O)c2cc(S(=O)(=O)Nc3ccc(Cl)cc3)ccc2N(C)C1=O (racemic),–,–,–,> 100,> 100,> 10,> 10,Not Active,Not Active,20,7.9,7,–,–,–
CCC1(C)C(=O)Nc2ccc(S(=O)(=O)Nc3ccc(F)cc3F)cc2C(=O)N1C (racemic),–,–,–,> 100,> 100,> 10,> 10,Not Active,Not Active,8.1,7.1,9,–,–,–
CCC1(C)NC(=O)c2cc(S(=O)(=O)Nc3ccccc3)ccc2NC1=O (racemic),–,–,–,> 100,> 100,> 10,> 10,Not Active,Not Active,2.4,8.7,< 5,1.9,–,–
CCC1(C)NC(=O)c2cc(S(=O)(=O)NCc3ccccc3)ccc2NC1=O (racemic),–,–,–,–,–,–,–,–,–,–,–,–,1.8,–,–
CCC1(C)NC(=O)c2cc(S(=O)(=O)NC3CCCCC3)ccc2NC1=O (racemic),–,–,–,–,–,–,–,–,–,–,–,–,2,–,–
CCC1(C)NC(=O)c2cc(S(=O)(=O)Nc3ccc(Cl)cc3)ccc2NC1=O (racemic),–,–,–,> 100,> 100,> 10,> 10,Not Active,Not Active,5.5,8.1,3,2.9,0.4,2
CCC1(C)NC(=O)c2cc(S(=O)(=O)Nc3ccccc3Cl)ccc2NC1=O (racemic),–,–,–,> 100,> 100,> 10,> 10,Not Active,Not Active,6.4,7.2,< 5,1.9,0.1,–
CCC1(C)NC(=O)c2cc(S(=O)(=O)Nc3ccc(C(F)(F)F)cc3)ccc2NC1=O (racemic),–,–,–,–,–,–,–,–,–,–,–,–,3.1,–,–
CCC1(C)NC(=O)c2cc(S(=O)(=O)Nc3ccc(OC)cc3)ccc2NC1=O (racemic),–,–,–,> 100,> 100,> 10,> 10,Not Active,Not Active,1.5,5.6,16,1.8,–,–
